The results in this text go back to the CheMixHub viscosity set.

Values joined by “and” are separate entries in the source; they are usually repeats but may differ in a detail not shown here. Equal entries are not always repeated. ± gives the uncertainty stated by the source.

Usually viscosity stands for the internal friction of a fluid under shear. For the compound `CC(=O)[O-].CCCC[n+]1ccn(C)c1`, the viscosity (298.15 K, 100 kPa) stood at 594.8 ± 50 mPa·s; the viscosity (298.15 K, 101 kPa) is on record as 441 ± 48 mPa·s; the viscosity (303.15 K, 100 kPa) came out at 399.6 ± 29 mPa·s; the viscosity (313.15 K, 100 kPa) was determined as 200.1 ± 11 mPa·s; the viscosity (313.15 K, 101 kPa) amounted to 154.5 ± 17 mPa·s; the viscosity (314.3 K, 101 kPa) is 125.7 ± 14 mPa·s and 138.3 ± 14 mPa·s. Further, the viscosity (323.15 K, 100 kPa) amounted to 111.7 ± 4.5 mPa·s.

For `CC(C)N`, the viscosity (298.15 K, 101 kPa) is 0.278 ± 0.002 mPa·s.

As for `FC(F)C(F)(F)OCC(F)(F)C(F)(F)C(F)(F)C(F)F`, the viscosity was determined as 2.5 ± 0.11 mPa·s (298.15 K, 101 kPa); 2.12 ± 0.09 mPa·s (308.15 K, 101 kPa); 1.65 ± 0.07 mPa·s (318.15 K, 101 kPa); 1.52 ± 0.07 mPa·s (323.15 K, 101 kPa).

The compound `COc1ccccc1O` gave a viscosity (303.15 K, 101 kPa) of 4.45 ± 0.12 mPa·s and a viscosity (308.15 K, 101 kPa) of 4.138 ± 0.051 mPa·s.
